Test system: Unkräutern in Mais
Assay: Post-emergence test / greenhouse
Format: in vivo
Details: post-emergence spray, control of weeds in maize, rated after three weeks; compared with comparison substance (A)
Excerpt: Post-emergence-Test/Gewächshaus
Lösungsmittel: 5 Gewichtsteile Aceton
Emulgator: 1 Gewichtsteil Alkylarylpolyglykolether
Zur Herstellung einer zweckmäßigen Wirkstoffzubereitung vermischt man 1 Gewichtsteil Wirkstoff mit der angegebenen Menge Lösungsmittel, gibt die angegebene Menge Emulgator zu und verdünnt das Konzentrat mit Wasser auf die gewünschte Konzentration.
Mit der Wirkstoffzubereitung spritzt man Testpflanzen, welche eine Höhe von 5 - 15 cm haben so, daß die jeweils gewünschten Wirkstoffmengen pro Flächeneinheit ausgebracht werden. Die Konzentration der Spritzbrühe wird so gewählt, daß in 2000 1 Wasser/ha die jeweils gewünschten Wirkstoffmengen ausgebracht werden. Nach drei Wochen wird der Schädigungsgrad der Pflanzen bonitiert in % Schädigung im Vergleich zur Entwicklung der unbehandelten Kontrolle.
Es bedeuten: • O % = keine Wirkung (wie unbehandelte Kontrolle) 100 % = totale Vernichtung

CC(C)n1cc(Oc2ccc(NC(=O)N(C)C)cc2)cn1 [I-1]
selektive herbizide Wirksamkeit: bessere selektive herbizide Wirksamkeit
